Measured values reported in the supplement of paper PMC10307832.

How the values were obtained:
Assay in all cases: relative viability (nuclei count vs DMSO), 5 days (fraction); higher = more cells survive
[1] = compound: NC1(c2ccc(-c3nc4ccn5c(=O)[nH]nc5c4cc3-c3ccccc3)cc2)CCC1 [MK-2206] + Nc1ncn([C@H]2C[C@H](O)[C@@H](CO)O2)c(=O)n1 [Decitabine] (partner 2 µM)
Procedure, shortened: (§1)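 Lung cancer cell lines were seeded in 1536-well plates and dosed by pin tool the next day, with either a single drug or a fixed anchor-drug dose combined with five library-drug doses (not always all listed) spaced in √10 steps. Five days later, one step fixed the cells and stained their nuclei (final 0.05% Triton X-100, 1% formaldehyde, 1 ug/ml Hoechst), and nuclei were counted on 4× images. Relative viability is the nuclei count in treated wells divided by the count in vehicle wells, and each value is the median of duplicate plates.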

[2] = compound: NC1(c2ccc(-c3nc4ccn5c(=O)[nH]nc5c4cc3-c3ccccc3)cc2)CCC1 [MK-2206] + CS(=O)(=O)N1CCN(Cc2cc3nc(-c4cccc5[nH]ncc45)nc(N4CCOCC4)c3s2)CC1 [Pictilisib] (partner 1 µM)
Procedure, shortened: as §1

[3] = compound: NC1(c2ccc(-c3nc4ccn5c(=O)[nH]nc5c4cc3-c3ccccc3)cc2)CCC1 [MK-2206] + C[C@@H](Oc1cc(-c2cnn(C3CCNCC3)c2)cnc1N)c1c(Cl)ccc(F)c1Cl [Crizotinib] (partner 1 µM)
Procedure, shortened: as §1

[4] = compound: NC1(c2ccc(-c3nc4ccn5c(=O)[nH]nc5c4cc3-c3ccccc3)cc2)CCC1 [MK-2206] + COc1cccc2cc(-c3nc([C@H]4CC[C@H](C(=O)O)CC4)n4ncnc(N)c34)[nH]c12 [OSI-027] (partner 0.5 µM)
Procedure, shortened: as §1

[5] = compound: CS(=O)(=O)N1CCN(Cc2cc3nc(-c4cccc5[nH]ncc45)nc(N4CCOCC4)c3s2)CC1 [Pictilisib] + COc1cc2c(Oc3ccc(NC(=O)C4(C(=O)Nc5ccc(F)cc5)CC4)cc3F)ccnc2cc1OCCCN1CCOCC1 [Foretinib] (partner 0.25 µM)
Procedure, shortened: as §1

Row | Cell Line | relative viability ([1]; first compound 0.01 µM) | relative viability ([1]; first compound 0.03162 µM) | relative viability ([1]; first compound 0.3162 µM) | relative viability ([1]; first compound 1 µM) | relative viability ([2]; first compound 0.01 µM) | relative viability ([2]; first compound 0.03162 µM) | relative viability ([2]; first compound 0.3162 µM) | relative viability ([2]; first compound 1 µM) | relative viability ([3]; first compound 0.01 µM) | relative viability ([3]; first compound 0.03162 µM) | relative viability ([3]; first compound 0.3162 µM) | relative viability ([3]; first compound 1 µM) | relative viability ([4]; first compound 0.01 µM) | relative viability ([4]; first compound 0.03162 µM) | relative viability ([4]; first compound 0.3162 µM) | relative viability ([4]; first compound 1 µM) | relative viability ([5]; first compound 0.02 µM) | relative viability ([5]; first compound 0.06325 µM) | relative viability ([5]; first compound 0.6325 µM) | relative viability ([5]; first compound 2 µM)
1 | LOU-NH91 | 0.783 | 0.839 | 0.793 | 0.768 | 0.551 | 0.479 | 0.461 | 0.474 | 0.709 | 0.727 | 0.72 | 0.715 | 0.72 | 0.695 | 0.668 | 0.555 | 0.73 | 0.886 | 0.834 | 0.738
2 | NCI-H1792 | 0.6 | 0.577 | 0.581 | 0.458 | 0.27 | 0.271 | 0.251 | 0.283 | 0.968 | 1 | 0.999 | 0.944 | 0.718 | 0.824 | 0.686 | 0.622 |  |  |  | 
3 | NCI-H1651 | 0.592 | 0.652 | 0.637 | 0.432 | 0.672 | 0.655 | 0.632 | 0.408 | 0.878 | 0.875 | 0.892 | 0.884 | 0.786 | 0.684 | 0.807 | 0.784 | 0.764 | 0.609 | 0.678 | 0.572
4 | A549 | 0.304 | 0.26 | 0.24 | 0.294 | 0.496 | 0.494 | 0.394 | 0.304 | 0.733 | 0.744 | 0.641 | 0.535 |  |  |  |  | 1.04 | 0.937 | 0.771 | 0.431
5 | HCC-366 | 0.358 | 0.334 | 0.339 | 0.32 | 0.19 | 0.124 | 0.126 | 0.12 | 0.48 | 0.532 | 0.452 | 0.442 | 0.927 | 0.962 | 0.569 | 0.44 | 0.978 | 0.936 | 0.68 | 0.329
6 | EKVX | 0.359 | 0.339 | 0.324 | 0.322 | 0.415 | 0.447 | 0.424 | 0.445 | 0.897 | 1.1 | 0.858 | 0.868 | 0.777 | 0.707 | 0.646 | 0.59 | 0.855 | 0.88 | 0.721 | 0.438
7 | NCI-H1993 | 0.533 | 0.585 | 0.516 | 0.491 | 0.85 | 0.742 | 0.742 | 0.86 | 0.842 | 0.86 | 0.729 | 0.68 | 0.493 | 0.579 | 0.469 | 0.595 | 0.678 | 0.613 | 0.69 | 0.599
8 | NCI-H522 | 0.701 | 0.677 | 0.612 | 0.654 |  |  |  |  |  |  |  |  | 0.867 | 0.726 | 0.615 | 0.631 |  |  |  | 
9 | NCI-H1703 |  |  |  |  | 0.239 | 0.232 | 0.236 | 0.254 | 0.809 | 0.658 | 0.302 | 0.511 |  |  |  |  | 0.34 | 0.372 | 0.321 | 0.27
10 | NCI-H23 | 0.325 | 0.318 | 0.295 | 0.332 | 0.528 | 0.491 | 0.444 | 0.464 | 0.563 | 0.619 | 0.53 | 0.543 | 0.646 | 0.503 | 0.455 | 0.337 | 0.919 | 0.94 | 0.778 | 0.437
11 | IA-LM |  |  |  |  | 0.299 | 0.256 | 0.26 | 0.141 |  | 0.867 | 0.807 | 0.819 |  |  |  |  | 1.2 | 1.14 | 0.894 | 0.518
12 | SW 900 | 0.449 |  | 0.399 | 0.391 |  |  |  |  |  |  |  |  | 0.728 | 0.542 | 0.416 | 0.481 | 0.93 | 0.815 | 0.774 | 0.533
13 | NCI-H1648 | 0.405 | 0.574 | 0.483 | 0.575 |  |  |  |  |  |  |  |  | 0.256 | 0.246 | 0.279 | 0.251 |  |  |  | 
14 | NCI-H1563 |  |  |  |  | 0.625 | 0.665 | 0.633 | 0.626 | 0.771 | 0.828 | 0.75 | 0.604 | 0.756 | 0.727 | 0.626 | 0.6 | 0.839 | 0.935 | 0.674 | 0.532
15 | NCI-H2342 | 0.687 | 0.792 | 0.787 | 0.629 |  |  |  |  |  |  |  |  | 0.649 | 0.614 | 0.555 | 0.484 | 0.991 | 1.02 | 0.805 | 0.539
16 | Calu-6 |  |  |  |  | 0.93 | 0.895 | 0.86 | 0.873 | 0.717 | 0.856 | 0.786 | 0.729 |  |  |  |  | 0.979 | 0.959 | 0.834 | 0.703
17 | NCI-H1395 | 0.703 | 0.853 | 0.705 | 0.657 | 0.653 | 0.677 | 0.462 | 0.498 |  |  |  |  | 0.699 | 0.588 | 0.437 | 0.471 | 0.966 | 1.01 | 0.962 | 0.588
18 | NCI-H1793 | 0.477 | 0.552 | 0.439 | 0.435 | 0.323 | 0.31 | 0.307 | 0.284 |  |  |  |  | 0.274 | 0.288 | 0.229 | 0.199 | 0.563 | 0.448 | 0.415 | 0.21
19 | NCI-H1299 |  |  |  |  | 0.832 | 0.728 | 0.744 | 0.769 | 0.957 | 0.963 | 1.06 | 0.94 |  |  |  |  | 1.06 | 1.19 | 1.22 | 1.06
20 | NCI-H2228 |  |  |  |  | 0.356 | 0.455 | 0.198 | 0.297 | 0.445 | 0.348 | 0.343 | 0.339 | 0.69 | 0.446 | 0.271 | 0.214 | 0.853 | 0.917 | 0.496 | 0.291
21 | EBC-1 |  |  |  |  | 0.459 | 0.314 | 0.176 | 0.164 | 0.189 | 0.205 | 0.198 | 0.172 |  |  |  |  | 0.122 | 0.0955 | 0.112 | 0.115
